For assay [1], the species on record is Homo sapiens. The assay can be described thus: Compound was evaluated for the ability to inhibit […] induced platelet aggregation (U-IPA) in human platelet rich plasma. The class given is functional. Conditions: read-out: I50.
The species named for assay [2] is Homo sapiens. The assay can be described thus: Compound was evaluated for the ability to inhibit arachidonic acid induced platelet aggregation (AAIPA) in human platelet rich plasma. It is filed as functional. To be noted: read-out: I50.
The next assay concerns Mus musculus. Nature of the assay: Compound (0.2 mpk/po) was evaluated for the ability to protect from U-46,619 induced lethality in mice as a function of time one half of the population survives from time of dosage. It is filed as functional.
A further assay deals with T1, Thromboxane A2 receptor (Homo sapiens, UniProt P21731).
T1 sequence (P21731 whole entry): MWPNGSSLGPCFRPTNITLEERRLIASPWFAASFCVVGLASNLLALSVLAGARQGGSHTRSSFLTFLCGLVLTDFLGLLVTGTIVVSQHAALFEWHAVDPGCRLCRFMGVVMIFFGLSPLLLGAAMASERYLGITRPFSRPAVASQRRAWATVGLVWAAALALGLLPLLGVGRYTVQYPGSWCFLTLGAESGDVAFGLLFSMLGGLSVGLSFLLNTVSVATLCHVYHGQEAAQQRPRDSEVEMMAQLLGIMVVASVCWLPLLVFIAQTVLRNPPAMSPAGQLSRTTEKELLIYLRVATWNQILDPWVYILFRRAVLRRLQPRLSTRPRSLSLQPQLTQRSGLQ
The assay can be described thus: Compound was evaluated for the receptor binding studies with Thromboxane A2 receptor using [3H]-SQ 29548 as radioligand in human platelet membranes. The class given is cell membranes.

In the case of `O=C(O)CCc1ccccc1CC1C2CCC(O2)C1c1nc(C(=O)NC2CCCCC2)co1` (stereo unspecified), the IC50 in the assay filed under Homo sapiens [1] is 25 nM; in the assay filed under Homo sapiens [2], 3 nM.
In the case of `CC(C)(C)CCCCCCNC(=O)c1coc(C2C3CCC(O3)C2Cc2ccccc2CCC(=O)O)n1` (stereo unspecified), the IC50 in the assay listed under Homo sapiens [1] came out at 5 nM; in the assay filed under Homo sapiens [2], 3 nM.
Consider `O=C(O)CCc1ccccc1CC1C2CCC(O2)C1c1nc(C(=O)NCCCCc2ccc(Cl)cc2)co1` (stereo unspecified), for which the IC50 came out at 13 nM in the assay filed under Homo sapiens [1] and 4 nM in the assay listed under Homo sapiens [2].
In the assay on Mus musculus, `O=C(O)CCc1ccccc1CC1C2CCC(O2)C1c1nc(C(=O)NCCCCC2CCCCC2)co1` (stereo unspecified) returned a T50 of 23 h. In addition, the figures for the IC50 in the assay listed under Homo sapiens [1] and in the assay listed under Homo sapiens [2] were 6 nM and 2 nM, respectively. At Thromboxane A2 receptor, the Kd turned out to be 0.1 nM.
In the case of `CCCCCCCNC(=O)c1coc(C2C3CCC(O3)C2Cc2ccccc2CCC(=O)O)n1` (stereo unspecified), the IC50 in the assay listed under Homo sapiens [1] was 13 nM; in the assay listed under Homo sapiens [2], 2 nM.
In the case of `CCCCCCCCCCNC(=O)c1coc(C2C3CCC(O3)C2Cc2ccccc2CCC(=O)O)n1` (stereo unspecified), the IC50 worked out at 6 nM in the assay listed under Homo sapiens [1] and 1 nM in the assay filed under Homo sapiens [2].
The corresponding values for `CNC(=O)c1coc(C2C3CCC(O3)C2Cc2ccccc2CCC(=O)O)n1` (stereo unspecified) are 81 nM and 20 nM.

What is called Kd is the constant that tells how readily two partners part at equilibrium. Low values mean a tighter complex, high ones a looser complex.

Values taken from ChEMBL document CHEMBL1126002, “Interphenylene 7-oxabicyclo[2.2.1]heptanes. SQ33,961: a new potent, long-acting thromboxane antagonist” (Bioorg Med Chem Lett, 1991).
